# In US12358907B2, “Substituted pyrrolidine amides III” (GRÜNENTHAL GMBH, priority 2019, dated 2025):
# Molecular target: glucocorticoid receptor (GAL4 DBD-GR) (Homo sapiens (Human), UniProt P04150)
# Test: GR cell-based assays (GRE agonist / GRE antagonist), CHO-Gal4/GR luciferase reporter
# Conditions: read-out: IC50 or EC50
# Text: Potential selective glucocorticoid receptor modulators of this intervention can be tested for modulation of the activity of the glucocorticoid receptor using cell-based assays. These assays involve a Chinese hamster ovary (CHO) cell line which contains fragments of the glucocorticoid receptor as well as fusion proteins. The glucocorticoid receptor fragments used are capable of binding the ligand (e.g. beclomethasone) to identify molecules that compete for binding with glucocorticoid receptor ligands. In more detail, the glucocorticoid receptor ligand binding domain is fused to the DNA binding domain (DBD) of the transcription factor GAL4 (GAL4 DBD-GR) and is stably integrated into a CHO cell line containing a GAL4-UAS-Luciferase reporter construct. […] After cell lysis the luminescence that is produced by luciferase after addition of the substrate is detected and EC50 or IC50 values can be calcuated. Engagement of molecules which induce gene expression via glucocortocoid receptor binding to the DNA leads to expression of the luciferase gene under the control of the fusion protein GAL4 DBD-GR and therefore to a dose-dependent increase of the luminescence signal. Binding of molecules which repress beclomethasone-induced gene expression of the luciferase gene under the control of the fusion protein GAL4 DBD-GR leads to a dose-dependent reduction of the luminescence signal.
# The reporter cell line CHO-Gal4/GR consisted of a chinese hamster ovary (CHO) cell line (Leibniz Institute DSMZ—German Collection of Microorganisms and Cell Cultures GmbH: ACC-110) containing a firefly luciferase gene under the control of the GR ligand binding domain fused to the DNA binding domain (DBD) of GAL4 (GAL4 DBD-GR) stably integrated into CHO cells. This cell line was established by stable transfection of CHO cells with a GAL4-UAS-Luciferase reporter construct. In a subsequent step the ligand binding domain of the GR cloned into pIRES2-EGFP-GAL4 containing the DNA binding domain of GAL4 from pFA-AT2 was transfected. This fusion construct activated firefly luciferase expression under the control of a multimerized GAL4 upstream activation sequence (UAS). The signal of the emitted luminescence was recorded by the FLIPR^TETRA. This allowed for specific detection of ligand-induced activation of the GR and therefore for the identification of compounds with agonistic properties. The GAL4/UAS reporter was premixed with a vector that constitutively expressed Renilla luciferase, which served as an internal positive control for transfection efficiency.
# The complete culture medium for the assay was: • DMEM F-12 (1:1) MIXTURE (LONZA cat. No: BE04-687F/U1) 500 mL • 5 mL of 100 mM Sodium Pyruvate (LONZA cat. No: BE12-115E) • 25 mL of 7.5% Sodium Bicarbonate (LONZA cat. No BE17-613E) • 6.5 mL of 1 M Hepes (LONZA cat. No: BE17-737E) • 5 mL of 100× Penicillin/Streptomycin (LONZA cat. No DE17-602E) • 50 mL of Fetal Bovine Serum (Euroclone cat. No ECS 0180L) • 0.25 mL of 10 mg/mL Puromycin (InvivoGen cat.: ant-pr-1) • 0.5 mL of 100 mg/mL Zeocin (InvivoGen cat.: ant-zn-1)
# Cryo-preserved CHO-Gal4/GR cells were suspended in complete medium and 5000 cells/25 μl/well were seeded into the wells of 384-well polystyrene assay plates (Thermo Scientific, cat. #4332) and cultured at 37° C., 5% CO2 and 95% humidity. After 24 hours growth medium was carefully removed and replaced by 30 μl Opti-MEM (GIBCO, cat. #31985062) as assay buffer. To test the compounds an 8-point half-log compound dilution curve was generated in 100% DMSO starting from a 2 mM stock and compounds were then diluted 1:50 in Opti-MEM. 10 μl of compounds were then added to the wells containing 30 μl Opti-MEM resulting in a final assay concentration range from 10 μM to 0.003 μM in 0.5% DMSO. Compounds were tested at 8 concentrations in quadruplicate data points. […] Finally, cells were lysed with 20 μl of Triton/Luciferin solution and the signal of the emitted luminescence was recorded at the FLIPR^TETRA for 2 minutes. […]
# Sequence of glucocorticoid receptor (GAL4 DBD-GR) (P04150 524-758): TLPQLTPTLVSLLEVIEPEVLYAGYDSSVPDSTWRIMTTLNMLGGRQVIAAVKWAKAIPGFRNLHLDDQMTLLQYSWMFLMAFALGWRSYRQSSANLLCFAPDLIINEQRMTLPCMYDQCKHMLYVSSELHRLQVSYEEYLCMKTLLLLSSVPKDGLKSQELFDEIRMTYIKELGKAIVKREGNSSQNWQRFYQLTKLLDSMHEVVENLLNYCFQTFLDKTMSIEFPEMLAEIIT
row,IC50 [nM],SMILES
1,100 to 1000,"O=C(N[C@@H]1[C@@H](c2ccccc2)N(c2cnc3c(cnn3-c3ccc(F)cc3)c2)C(=O)C12CC2)C1CC1 (racemic) [Example 31, N-[rac-((6R,7S)-5-(1-(4-fluorophenyl)-1H-pyrazolo[3,4-b]pyridin-5-yl)-4-oxo-6-phenyl-5-azaspiro[2.4]heptan-7-yl)]cyclopropanecarboxamide]"
2,1000 to 15000,"O=C(N[C@@H]1[C@@H](c2ccccc2)N(c2ccc3c(cnn3-c3ccc(F)cc3)n2)C(=O)C12CC2)C1CC1 (racemic) [Example 33, N-[rac-((6R,7S)-5-(1-(4-fluorophenyl)-1H-pyrazolo[4,3-b]pyridin-5-yl)-4-oxo-6-phenyl-5-azaspiro[2.4]heptan-7-yl)]cyclopropanecarboxamide]"
3,< 100,"C[C@@H]1C(=O)N(c2ccc3c(cnn3-c3ccc(F)cc3)c2)[C@H](c2ccccc2)[C@H]1NC(=O)C1CC1 (racemic) [Example 46, N-[rac-(2R,3S,4S)-1-[1-(4-Fluorophenyl)-1H-indazol-5-yl]-4-methyl-5-oxo-2-phenyl-pyrrolidin-3-yl]-cyclopropanecarboxylic acid amide]"
4,100 to 1000,"Cc1ncsc1C(=O)N[C@H]1[C@H](C)C(=O)N(c2ccc3c(cnn3-c3ccc(F)cc3)c2)[C@@H]1c1ccccc1 (racemic) [Example 60, N-[rac(2R,3S,4S)-1-[1-(4-Fluorophenyl)-1H-indazol-5-yl]-4-methyl-5-oxo-2-phenyl-pyrrolidin-3-yl]-4-methyl-thiazole-5-carboxylic acid amide]"
5,100 to 1000,"C[C@@H]1C(=O)N(c2ccc3c(cnn3-c3ccc(F)cc3)c2)[C@H](c2ccccc2)[C@H]1NS(C)(=O)=O (racemic) [Example 61, N-[rac-(2R,3S,4S)-1-[1-(4-Fluorophenyl)-1H-indazol-5-yl]-4-methyl-5-oxo-2-phenyl-pyrrolidin-3-yl]-methanesulfonic acid amide]"
6,100 to 1000,"Cc1cccc([C@@H]2[C@@H](NC(=O)C3CC3)[C@H](C)C(=O)N2c2ccc3c(cnn3-c3ccc(F)cc3)c2)c1 (racemic) [Example 63, N-[rac-(2R,3S,4S)-1-[1-(4-Fluorophenyl)-1H-indazol-5-yl]-4-methyl-2-m-tolyl-5-oxo-pyrrolidin-3-yl]-cyclopropanecarboxylic acid amide]"
7,< 100,"C[C@@H]1C(=O)N(c2ccc3c(cnn3-c3ccc(F)cc3)c2)[C@H](c2ccccc2)[C@H]1NC(=O)c1ccn(C)n1 (racemic) [Example 64, N-[rac-(2R,3S,4S)-1-[1-(4-Fluorophenyl)-1H-indazol-5-yl]-4-methyl-5-oxo-2-phenyl-pyrrolidin-3-yl]-1-methyl-1H-pyrazole-3-carboxylic acid amide]"
8,< 100,"C[C@@H]1C(=O)N(c2ccc3c(cnn3-c3ccc(F)cc3)c2)[C@H](c2ccccc2)[C@H]1NC(=O)c1cccnc1 (racemic) [Example 65, N-[rac-(2R,3S,4S)-1-[1-(4-Fluorophenyl)-1H-indazol-5-yl]-4-methyl-5-oxo-2-phenyl-pyrrolidin-3-yl]-pyridine-3-carboxylic acid amide]"
9,< 100,"C[C@@H]1C(=O)N(c2ccc3c(cnn3-c3ccc(F)cc3)c2)[C@H](c2ccccc2)[C@H]1NC(=O)c1ncccn1 (racemic) [Example 66, N-[rac-(2R,3S,4S)-1-[1-(4-Fluorophenyl)-1H-indazol-5-yl]-4-methyl-5-oxo-2-phenyl-pyrrolidin-3-yl]-pyrimidine-2-carboxylic acid amide]"
10,< 100,"Cc1cccc([C@@H]2[C@@H](NC(=O)C3CC3)[C@@H](C)C(=O)N2c2ccc3c(cnn3-c3ccc(F)cc3)c2)c1 (racemic) [Example 70, N-[rac-(2R,3S,4R)-1-[1-(4-Fluorophenyl)-1H-indazol-5-yl]-4-methyl-2-m-tolyl-5-oxo-pyrrolidin-3-yl]-cyclopropanecarboxylic acid amide]"

# The remaining lines, values behind:
row,SMILES,IC50 [nM]
1,"C[C@@H]1C(=O)N(c2ccc3c(cnn3-c3ccc(F)cc3)c2)[C@H](c2ccccc2Cl)[C@H]1NC(=O)C(C)(F)F (racemic) [Example 47, N-[rac-(2R,3S,4S)-2-(2-Chlorophenyl)-1-[1-(4-fluorophenyl)-1H-indazol-5-yl]-4-methyl-5-oxo-pyrrolidin-3-yl]-2,2-difluoro-propionamide]",< 100
2,"Cc1cccc([C@@H]2[C@@H](NS(C)(=O)=O)[C@H](C)C(=O)N2c2ccc3c(cnn3-c3ccc(F)cc3)c2)c1 (racemic) [Example 62, N-[rac-(2R,3S,4S)-1-[1-(4-Fluorophenyl)-1H-indazol-5-yl]-4-methyl-2-m-tolyl-5-oxo-pyrrolidin-3-yl]-methanesulfonic acid amide]",100 to 1000
3,"Cc1cccc([C@@H]2[C@@H](NC(=O)c3scnc3C)[C@H](C)C(=O)N2c2ccc3c(cnn3-c3ccc(F)cc3)c2)c1 (racemic) [Example 67, N-[rac-(2R,3S,4S)-1-[1-(4-Fluorophenyl)-1H-indazol-5-yl]-4-methyl-2-m-tolyl-5-oxo-pyrrolidin-3-yl]-4-methyl-thiazole-5-carboxylic acid amide]",< 100
4,"Cc1cccc([C@@H]2[C@@H](NC(=O)c3cccnc3)[C@H](C)C(=O)N2c2ccc3c(cnn3-c3ccc(F)cc3)c2)c1 (racemic) [Example 68, N-[rac-(2R,3S,4S)-1-[1-(4-Fluorophenyl)-1H-indazol-5-yl]-4-methyl-2-m-tolyl-5-oxo-pyrrolidin-3-yl]-pyridine-3-carboxylic acid amide]",100 to 1000
5,"Cc1cccc([C@@H]2[C@@H](NC(=O)c3ncccn3)[C@H](C)C(=O)N2c2ccc3c(cnn3-c3ccc(F)cc3)c2)c1 (racemic) [Example 69, N-[rac-(2R,3S,4S)-1-[1-(4-Fluorophenyl)-1H-indazol-5-yl]-4-methyl-2-m-tolyl-5-oxo-pyrrolidin-3-yl]-pyrimidine-2-carboxylic acid amide]",< 100
6,"Cc1cccc([C@@H]2[C@@H](NC(=O)c3scnc3C)[C@@H](C)C(=O)N2c2ccc3c(cnn3-c3ccc(F)cc3)c2)c1 (racemic) [Example 71, N-[rac-(2R,3S,4R)-1-[1-(4-Fluorophenyl)-1H-indazol-5-yl]-4-methyl-2-m-tolyl-5-oxo-pyrrolidin-3-yl]-4-methyl-thiazole-5-carboxylic acid amide]",100 to 1000
7,"Cc1cccc([C@@H]2[C@@H](NC(=O)c3ccn(C)n3)[C@@H](C)C(=O)N2c2ccc3c(cnn3-c3ccc(F)cc3)c2)c1 (racemic) [Example 72, N-[rac-(2R,3S,4R)-1-[1-(4-Fluorophenyl)-1H-indazol-5-yl]-4-methyl-2-m-tolyl-5-oxo-pyrrolidin-3-yl]-1-methyl-1H-pyrazole-3-carboxylic acid amide]",< 100
8,"Cc1cccc([C@@H]2[C@@H](NC(=O)c3cccnc3)[C@@H](C)C(=O)N2c2ccc3c(cnn3-c3ccc(F)cc3)c2)c1 (racemic) [Example 73, N-[rac-(2R,3S,4R)-1-[1-(4-Fluorophenyl)-1H-indazol-5-yl]-4-methyl-2-m-tolyl-5-oxo-pyrrolidin-3-yl]-pyridine-3-carboxylic acid amide]",< 100
9,"Cc1cccc([C@@H]2[C@@H](NC(=O)c3ncccn3)[C@@H](C)C(=O)N2c2ccc3c(cnn3-c3ccc(F)cc3)c2)c1 (racemic) [Example 74, N-[rac-(2R,3S,4R)-1-[1-(4-Fluorophenyl)-1H-indazol-5-yl]-4-methyl-2-m-tolyl-5-oxo-pyrrolidin-3-yl]-pyrimidine-2-carboxylic acid amide]",100 to 1000
